Key:
[1] = target: PI3K delta (Homo sapiens (Human), UniProt O00329); assay: Enzymatic PI3K delta isoform inhibition (lipid kinase activity, Kinase-Glo luminescence); format: biochemical; details: Enzymatic assay
Procedure: (§1) 1.1 Test of Lipid Kinase Activity […]
(§2) In a more preferred assay, the kinase reaction is performed in a final volume of 10 μl per well of a low volume non-binding CORNING, 384 well black plate (Cat. No. #3676). The final concentrations of ATP and phosphatidyl inositol (PI) in the assay are 1 μM and 10 μg/mL, respectively. The reaction is started by the addition of ATP.
(§3) The components of the assay are added per well as follows:
(§4) The Z′ value is a universal measurement of the robustness of an assay. A Z′ between 0.5 and 1.0 is considered an excellent assay.
(§5) IC50 is determined by a four parameter curve fitting routine that comes along with “excel fit”. A four parameter logistic equation is used to calculate IC50 values (IDBS XLfit) of the percentage inhibition of each compound at 8 concentrations (usually 10, 3.0, 1.0, 0.3, 0.1, 0.030, 0.010 and 0.003 μM). Alternatively, IC50 values are calculated using idbsXLfit model 204, which is a 4 parameter logistic model.
(§6) Yet alternatively, for an ATP depletion assay, compounds of the formula I to be tested are dissolved in DMSO and directly distributed into a white 384-well plate at 0.5 μl per well. To start the reaction, 10 μl of 10 nM PI3 kinase and 5 μg/mL 1-alpha-phosphatidylinositol (PI) are added into each well followed by 10 μl of 2 μM ATP. The reaction is performed until approx 50% of the ATP is depleted, and then stopped by the addition of 20 μl of Kinase-Glo solution (Promega Corp., Madison, Wis., USA). The stopped reaction is incubated for 5 minutes and the remaining ATP is then detected via luminescence. IC50 values are then determined.

[2] = target: PI3K alpha (Homo sapiens (Human), UniProt P42336); assay: Enzymatic PI3K alpha isoform inhibition (lipid kinase activity, Kinase-Glo luminescence); format: biochemical; details: Enzymatic assay
Chain of PI3K alpha (P42336 other isoform, or with tags, fused parts or gaps): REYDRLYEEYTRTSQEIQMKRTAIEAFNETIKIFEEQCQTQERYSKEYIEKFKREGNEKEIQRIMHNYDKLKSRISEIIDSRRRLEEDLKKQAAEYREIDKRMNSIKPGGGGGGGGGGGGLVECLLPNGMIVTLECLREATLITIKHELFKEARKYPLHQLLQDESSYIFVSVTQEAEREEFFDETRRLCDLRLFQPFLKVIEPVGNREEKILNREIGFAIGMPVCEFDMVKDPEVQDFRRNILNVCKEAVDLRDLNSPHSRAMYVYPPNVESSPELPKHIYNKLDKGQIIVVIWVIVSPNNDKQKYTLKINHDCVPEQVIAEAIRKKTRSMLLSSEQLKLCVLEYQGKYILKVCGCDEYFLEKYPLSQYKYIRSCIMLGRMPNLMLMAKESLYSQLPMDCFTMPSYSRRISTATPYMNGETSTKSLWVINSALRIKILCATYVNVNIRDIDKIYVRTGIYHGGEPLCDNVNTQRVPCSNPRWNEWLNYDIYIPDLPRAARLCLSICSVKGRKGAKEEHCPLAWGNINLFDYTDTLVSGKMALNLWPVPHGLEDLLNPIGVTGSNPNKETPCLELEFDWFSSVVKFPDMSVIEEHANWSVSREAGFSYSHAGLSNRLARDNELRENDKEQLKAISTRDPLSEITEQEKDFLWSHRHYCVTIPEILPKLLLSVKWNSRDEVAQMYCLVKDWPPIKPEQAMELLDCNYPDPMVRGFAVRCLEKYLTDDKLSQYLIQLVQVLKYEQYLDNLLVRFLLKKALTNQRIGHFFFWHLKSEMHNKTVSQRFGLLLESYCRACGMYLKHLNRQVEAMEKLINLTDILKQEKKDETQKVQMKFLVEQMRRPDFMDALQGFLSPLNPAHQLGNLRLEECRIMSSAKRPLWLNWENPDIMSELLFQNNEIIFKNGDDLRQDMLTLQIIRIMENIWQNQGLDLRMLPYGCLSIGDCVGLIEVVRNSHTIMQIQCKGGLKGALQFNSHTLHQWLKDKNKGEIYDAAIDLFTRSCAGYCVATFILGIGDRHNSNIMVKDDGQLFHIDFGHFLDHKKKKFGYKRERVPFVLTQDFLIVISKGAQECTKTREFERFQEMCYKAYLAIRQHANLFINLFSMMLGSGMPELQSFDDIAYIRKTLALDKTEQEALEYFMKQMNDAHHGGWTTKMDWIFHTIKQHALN
Procedure: as §1, §2, §3, §4, §5, §6

Chain of PI3K delta (O00329 other isoform, or with tags, fused parts or gaps linker GGGGGG): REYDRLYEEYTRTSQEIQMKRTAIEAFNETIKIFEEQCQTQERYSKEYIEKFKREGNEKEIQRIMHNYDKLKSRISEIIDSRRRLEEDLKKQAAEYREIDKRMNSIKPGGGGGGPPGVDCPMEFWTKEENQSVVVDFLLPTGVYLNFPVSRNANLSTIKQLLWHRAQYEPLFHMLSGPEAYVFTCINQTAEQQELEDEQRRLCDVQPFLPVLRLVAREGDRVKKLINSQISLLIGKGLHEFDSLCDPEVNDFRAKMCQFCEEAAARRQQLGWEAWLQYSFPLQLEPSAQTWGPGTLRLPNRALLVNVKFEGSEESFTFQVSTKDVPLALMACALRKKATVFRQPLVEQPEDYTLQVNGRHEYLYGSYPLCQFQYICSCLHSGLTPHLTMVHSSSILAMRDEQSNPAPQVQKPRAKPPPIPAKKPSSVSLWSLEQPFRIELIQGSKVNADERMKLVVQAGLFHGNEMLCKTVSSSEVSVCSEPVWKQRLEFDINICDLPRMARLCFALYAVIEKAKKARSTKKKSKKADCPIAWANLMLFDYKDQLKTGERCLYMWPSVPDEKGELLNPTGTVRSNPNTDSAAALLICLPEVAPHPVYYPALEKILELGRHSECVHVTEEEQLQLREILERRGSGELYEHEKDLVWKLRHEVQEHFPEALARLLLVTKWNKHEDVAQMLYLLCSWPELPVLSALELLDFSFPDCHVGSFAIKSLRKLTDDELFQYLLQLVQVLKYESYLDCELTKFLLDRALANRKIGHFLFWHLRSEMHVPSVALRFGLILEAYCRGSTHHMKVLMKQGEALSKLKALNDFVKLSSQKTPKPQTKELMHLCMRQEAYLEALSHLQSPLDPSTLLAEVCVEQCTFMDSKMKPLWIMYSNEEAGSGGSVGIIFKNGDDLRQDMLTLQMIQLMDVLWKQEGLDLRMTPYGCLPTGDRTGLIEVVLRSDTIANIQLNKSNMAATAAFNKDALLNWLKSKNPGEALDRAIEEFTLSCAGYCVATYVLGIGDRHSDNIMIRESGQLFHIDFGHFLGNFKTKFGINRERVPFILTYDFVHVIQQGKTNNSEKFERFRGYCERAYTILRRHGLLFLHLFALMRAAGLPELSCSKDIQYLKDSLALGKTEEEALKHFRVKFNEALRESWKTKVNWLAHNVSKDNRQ

IC50 [1]	IC50 [2]	Compound
323 nM	> 9100 nM	CCC(=O)N1CC[C@H](Oc2ccc3c(c2)N(c2ccc(OC)c(S(C)(=O)=O)c2)CCO3)C1 [Example A16, 1-{(S)-3-[4-(3-Methanesulfonyl-4-methoxy-phenyl)-3,4-dihydro-2H-benzo[1,4]oxazin-6-yloxy]-pyrrolidin-1-yl}-propan-1-one]
4 nM	366 nM	Cc1cc(N2CCOc3ccc(O[C@H]4CCN(C(=O)C5CCOCC5)C4)cc32)cnc1Cl [Example B58, {(S)-3-[4-(6-Chloro-5-methyl-pyridin-3-yl)-3,4-dihydro-2H-benzo[1,4]oxazin-6-yloxy]-pyrrolidin-1-yl}-(tetrahydro-pyran-4-yl)-methanone]
296 nM	2790 nM	CCC(=O)N1CC[C@H](Oc2ccc3c(c2)N(c2ccc(OC)c(C(F)(F)F)c2)CCO3)C1 [Example A41, 1-{(S)-3-[4-(4-Methoxy-3-trifluoromethyl-phenyl)-3,4-dihydro-2H-benzo[1,4]oxazin-6-yloxy]-pyrrolidin-1-yl}-propan-1-one]
13 nM	910 nM	COc1ncc(N2CCOc3ccc(O[C@H]4CCN(C(=O)C5CCOC5)C4)cc32)cc1F (stereo partly drawn) [Example B98, {(S)-3-[4-(5-Fluoro-6-methoxy-pyridin-3-yl)-3,4-dihydro-2H-benzo[1,4]oxazin-6-yloxy]-pyrrolidin-1-yl}-(tetrahydro-furan-3-yl)-methanone]
66 nM	353 nM	Cc1cc(N2CCOc3ccc(O[C@H]4CCN(S(=O)(=O)C(C)C)C4)cc32)cnc1S(C)(=O)=O [Example B82, 4-(6-Methanesulfonyl-5-methyl-pyridin-3-yl)-6-[(S)-1-(propane-2-sulfonyl)-pyrrolidin-3-yloxy]-3,4-dihydro-2H-benzo[1,4]oxazine]
25 nM	236 nM	CCC(=O)N1CC[C@H](Oc2ccc3c(c2)N(c2cncc(S(=O)(=O)C(C)C)c2)CCO3)C1 [Example B5, 1-((S)-3-{4-[5-(Propane-2-sulfonyl)-pyridin-3-yl]-3,4-dihydro-2H-benzo[1,4]oxazin-6-yloxy}-pyrrolidin-1-yl)-propan-1-one]
8 nM	212 nM	Cc1cc(N2CCOc3ccc(O[C@H]4CCN(C(=O)c5cocn5)C4)cc32)cnc1S(C)(=O)=O [Example B24, {(S)-3-[4-(6-Methanesulfonyl-5-methyl-pyridin-3-yl)-3,4-dihydro-2H-benzo[1,4]oxazin-6-yloxy]-pyrrolidin-1-yl}-oxazol-4-yl-methanone]
4 nM	295 nM	Cc1cc(N2CCOc3ccc(O[C@H]4CCN(C(=O)C5CC5)C4)cc32)cnc1S(C)(=O)=O [Example B80, Cyclopropyl-{(S)-3-[4-(6-methanesulfonyl-5-methyl-pyridin-3-yl)-3,4-dihydro-2H-benzo[1,4]oxazin-6-yloxy]-pyrrolidin-1-yl}-methanone]
11 nM	756 nM	COc1cc(N2CCOc3ccc(O[C@H]4CCN(C(=O)C5CCOCC5)C4)cc32)cnc1Cl [Example B54, {(S)-3-[4-(6-Chloro-5-methoxy-pyridin-3-yl)-3,4-dihydro-2H-benzo[1,4]oxazin-6-yloxy]-pyrrolidin-1-yl}-(tetrahydro-pyran-4-yl)-methanone]
22 nM	71 nM	COCC(=O)N1CC[C@H](Oc2ccc3c(c2)N(c2cnc(OC)c(OC)c2)CCO3)C1 [Example B44, 1-{(S)-3-[4-(5,6-Dimethoxy-pyridin-3-yl)-3,4-dihydro-2H-benzo[1,4]oxazin-6-yloxy]-pyrrolidin-1-yl}-2-methoxy-ethanone]
24 nM	1020 nM	COc1ncc(N2CCOc3ccc(O[C@H]4CON(C(=O)C5CCOCC5)C4)cc32)cc1C#N [Example D22, 2-Methoxy-5-{6-[(R)-2-(tetrahydro-pyran-4-carbonyl)-isoxazolidin-4-yloxy]-2,3-dihydro-benzo[1,4]oxazin-4-yl}-nicotinonitrile]
4 nM	525 nM	COc1ncc(N2CCOc3ccc(O[C@H]4CCN(C(=O)C5CCS(=O)(=O)CC5)C4)cc32)cc1C [Example B93, (1,1-Dioxo-hexahydro-1lambda*6*-thiopyran-4-yl)-{(S)-3-[4-(6-methoxy-5-methyl-pyridin-3-yl)-3,4-dihydro-2H-benzo[1,4]oxazin-6-yloxy]-pyrrolidin-1-yl}-methanone]
3 nM	783 nM	Cc1cc(N2CCOc3cnc(O[C@H]4CCN(C(=O)C5CCOCC5)C4)cc32)cnc1S(C)(=O)=O [Example F6, {(S)-3-[1-(6-Methanesulfonyl-5-methyl-pyridin-3-yl)-2,3-dihydro-1H-pyrido[3,4-b][1,4]oxazin-7-yloxy]-pyrrolidin-1-yl}-(tetrahydro-pyran-4-yl)-methanone]
9 nM	133 nM	COc1ncc(N2CCOc3ccc(O[C@H]4CCN(C(=O)c5cn(C)cn5)C4)cc32)cc1C [Example B89, {(S)-3-[4-(6-Methoxy-5-methyl-pyridin-3-yl)-3,4-dihydro-2H-benzo[1,4]oxazin-6-yloxy]-pyrrolidin-1-yl}-(1-methyl-1H-imidazol-4-yl)-methanone]
5 nM	589 nM	Cc1cc(N2CCOc3ccc(O[C@H]4CCN(C(=O)c5ccncc5)C4)cc32)cnc1S(C)(=O)=O [Example B22, {(S)-3-[4-(6-Methanesulfonyl-5-methyl-pyridin-3-yl)-3,4-dihydro-2H-benzo[1,4]oxazin-6-yloxy]-pyrrolidin-1-yl}-pyridin-4-yl-methanone]
36 nM	369 nM	COCC(=O)N1CC[C@H](Oc2ccc3c(c2)N(c2cnc(S(C)(=O)=O)c(C)c2)CCO3)C1 [Example B32, 1-{(S)-3-[4-(6-Methanesulfonyl-5-methyl-pyridin-3-yl)-3,4-dihydro-2H-benzo[1,4]oxazin-6-yloxy]-pyrrolidin-1-yl}-2-methoxy-ethanone]
< 3 nM	28 nM	COCC(=O)N1CC[C@H](Oc2cc3c(cn2)OCCN3c2cnc(OC)c(C(F)F)c2)C1 [Example F9, 1-{(S)-3-[1-(5-Difluoromethyl-6-methoxy-pyridin-3-yl)-2,3-dihydro-1H-pyrido[3,4-b][1,4]oxazin-7-yloxy]-pyrrolidin-1-yl}-2-methoxy-ethanone]
10 nM	498 nM	COc1ncc(N2CCOc3ccc(O[C@H]4CCN(C(=O)[C@H]5CC[C@@H](O)CC5)C4)cc32)cc1F [Example B118, {(S)-3-[4-(5-Fluoro-6-methoxy-pyridin-3-yl)-3,4-dihydro-2H-benzo[1,4]oxazin-6-yloxy]-pyrrolidin-1-yl}-(4-hydroxy-cyclohexyl)-methanone]
11 nM	176 nM	COc1cc(N2CCOc3ccc(O[C@H]4CCN(C(=O)C5COCCO5)C4)cc32)cnc1OC (stereo partly drawn) [Example B39, {(S)-3-[4-(5,6-Dimethoxy-pyridin-3-yl)-3,4-dihydro-2H-benzo[1,4]oxazin-6-yloxy]-pyrrolidin-1-yl}-[1,4]dioxan-2-yl-methanone]
< 3 nM	94 nM	COc1ncc(N2CCOc3ccc(O[C@H]4CCN(C(=O)c5cnco5)C4)cc32)cc1Cl [Example B108, {(S)-3-[4-(5-Chloro-6-methoxy-pyridin-3-yl)-3,4-dihydro-2H-benzo[1,4]oxazin-6-yloxy]-pyrrolidin-1-yl}-oxazol-5-yl-methanone]

From patent publication US9539260B2, “Dihydro-benzo-oxazine and dihydro-pyrido-oxazine derivatives” (Novartis AG, priority 2012, dated 2017)
